Experiments:
BRD4 BD2 = target: T1, BRD4 BD2 (Homo sapiens, UniProt O60885, Y97A); assay: BRD4 BD2 TR-FRET competition assay (mutant tandem bromodomain); format: binding; settings: read-out: pIC50 in the BRD4 BD2 assay (converted)
T1 construct: BRD4 (1-477) (Y97A) and (Y390A); made in house; host or cells: E. coli (pET15b vector)
Procedure: Bromodomain binding was assessed utilising a time resolved fluorescent resonance energy transfer (TR-FRET) competition assay. To enable this approach a known, high affinity, pan-BET interacting small molecule was labelled with Alexa Fluor® 647, which is a far-red-fluorescent dye (Reference Compound X). Reference Compound X acts as a reporter of bromodomain binding and is the acceptor fluorophore component of the TR-FRET pair. Europium chelate, conjugated to an anti-6*His antibody, was utilised as the donor fluorophore in the TR-FRET pair. […] A TR-FRET signal is generated when the donor and acceptor fluorophores are in close proximity, between 20-80 Å, which is enabled in this assay by binding of Reference Compound X to the bromodomain protein.
Assay Principle: In order to generate a TR-FRET signal, donor fluorophore is excited by a laser at λ337 nm, which subsequently leads to emission at λ618 nm. If the acceptor fluorophore is in close proximity then energy transfer can occur, which leads to emission of Alexa Fluor® 647 at λ665 nm. In the presence of competitor compound, Reference Compound X can be displaced from binding to the bromodomain. If displacement occurs, the acceptor fluorophore is no longer in proximity to the donor fluorophore, which prevents fluorescent energy transfer and, subsequently, a loss of Alexa Fluor®647 emission at λ665 nm.
(§1) The competition of the compounds of formula (I) with Reference Compound X for binding to the BET family (BRD2, BRD3, BRD4 and BRDT) was assessed using protein truncates spanning both bromodomain 1 (BD1) and bromodomain 2 (BD2). In order to monitor differential binding to either BD1 or BD2, single residue mutations of key tyrosines to alanine were made in the acetyl lysine binding pockets. To validate this approach, a double residue mutant tandem domain protein was produced for each of the BET family members. Utilising a Fluorescence Polarisation approach, binding affinities for each of the single and double mutants for Reference Compound X were determined.
Final purification was completed by Superdex 200 prep grade size exclusion column. Purified protein was stored at −80° C. in 20 mM HEPES pH 7.5 and 100 mM NaCl.
Protocol for Bromodomain BRD2, 3, 4 and T, BD1+BD2 mutant TR-FRET competition assays: All assay components were dissolved in an assay buffer composing of 50 mM HEPES pH7.4, 50 mM NaCl, 5% Glycerol, 1 mM DTT and 1 mM CHAPS. […] The solution containing bromodomain and Reference Compound X was added to dose response dilutions of test compound or DMSO vehicle (a maximum of 0.5% DMSO is used in this assay) in Greiner 384 well black low volume microtitre plates and subsequently incubated for 30 minutes at rt. An equal volume of 3 nM of anti-6*His Europium chelate was added to all wells, followed by a further 30 minute incubation at rt. TR-FRET was detected using a Perkin Elmer Multimode plate reader, by exciting the donor fluorophore at λ337 nm and subsequently, after a delay of 50 μsecs, measuring emission of the donor and acceptor fluorophores at λ615 nm and λ665 nm, respectively. In order to control these assays, 16 replicates each of uninhibited (DMSO vehicle) and inhibited (10*IC50 concentrations of Example 11 of WO 2011/054846A1) TR-FRET assays were included on every microtitre plate.
cA four parameter curve fit of the following form was then applied:
y=a+((b−a)/(1+(10^x/10^c)^d) • Where ‘a’ is the minimum, ‘b’ is the […], ‘c’ is the pIC50 and ‘d’ is the […].
Those of skill in the art will recognise that in vitro binding assays and cell-based assays for functional activity are subject to experimental variability. Accordingly, it is to be understood that the pIC50 values given below are exemplary only. pIC50 values are expressed as log10 units.

[1] = test system: BET family (BRD2, BRD3, BRD4 and BRDT) tandem bromodomain proteins; assay: Fluorescence Polarisation binding of Reference Compound X to single and double mutant tandem BET proteins; design: species or system Human
Procedure: as §1, with “determined. […] The affinities of the single mutated bromdomain tandem proteins for Reference Compound X were equi-potent with the corresponding non-mutated BET protein. […] In the TR-FRET competition assay, Reference Compound X is used at a concentration that is equivalent to the Kd for the non-mutated bromodomain, which ensures that no binding at the mutated bromodomain is detected.” for “determined.”
Protein production: Recombinant Human Bromodomains [(BRD2 (1-473) (Y113A) and (Y386A), BRD3 (1-435) (Y73A) and (Y348A) BRD4 (1-477) (Y97A) and (Y390A) and BRDT (1-397) (Y66A) and (Y309A)] were expressed in E. coli cells (in pET15b vector for BRD2/3/4 and in pET28a vector for BRDT) with a 6-His tag at the N-terminal. The His-tagged Bromodomain pellet was resuspended in 50 mM HEPES (pH7.5), 300 mM NaCl, 10 mM imidazole & 1 μL/mL protease inhibitor cocktail and extracted from the E. coli cells using sonication and purified using a nickel sepharose high performance column, the proteins were washed and then eluted with a linear gradient of 0-500 mM imidazole with buffer 50 mM HEPES (pH7.5), 150 mM NaCl, 500 mM imidazole, over 20 column volumes. Final purification was completed by Superdex 200 prep grade size exclusion column. Purified protein was stored at −80° C. in 20 mM HEPES pH 7.5 and 100 mM NaCl. Protein identity was confirmed by peptide mass fingerprinting and predicted molecular weight confirmed by mass spectrometry.

Row | SMILES | IC50 (BRD4 BD2) [µM] | also measured
1 | CNC(=O)c1cc(C(=O)N[C@H]2[C@@H]3COC[C@@H]32)c([C@H](CC#N)c2cccc(Cl)c2)o1 (single isomer, unassigned) [Example 88, N^4-((1R,5S,6r)-3-Oxabicyclo[3.1.0]hexan-6-yl)-5-((R*)-1-(3-chlorophenyl)-2-cyanoethyl)-N^2-methylfuran-2,4-dicarboxamide] | 1 to 10 | 
2 | CNC(=O)c1cc(C(=O)N[C@H]2[C@@H]3COC[C@@H]32)c([C@H](C)c2cccc(Cl)c2)o1 (single isomer, unassigned) [Example 89, N^4-((1R,5S,6r)-3-Oxabicyclo[3.1.0]hexan-6-yl)-5-((R*)-1-(3-chlorophenyl)ethyl)-N^2-methylfuran-2,4-dicarboxamide] | 1 to 10 | 
3 | CNC(=O)c1cc(C(=O)N[C@H]2CC[C@H](O)CC2)c([C@@H](OC)c2cccc(Cl)c2)o1 (single isomer, unassigned) [Example 93, 5-((S*)-(3-Chlorophenyl)(methoxy)methyl)-N^4-((1r,4S)-4-hydroxycyclohexyl)-N^2-methylfuran-2,4-dicarboxamide] | 1 to 10 | 
4 | CNC(=O)c1cc(C(=O)N[C@H]2CC[C@H](O)CC2)c([C@@H](C)c2cc(Cl)cc(OC)c2)o1 (single isomer, unassigned) [Example 94, 5-((S*)-1-(3-Chloro-5-methoxyphenyl)ethyl)-N^4-((1r,4S)-4-hydroxycyclohexyl)-N^2-methylfuran-2,4-dicarboxamide] | 1 to 10 | 
5 | CNC(=O)c1cc(C(=O)N[C@H]2CC[C@H](O)CC2)c([C@@H](C)c2ccc(OC)c(Cl)c2)o1 (single isomer, unassigned) [Example 95, 5-((S*)-1-(3-Chloro-4-methoxyphenyl)ethyl)-N^4-((1r,4S)-4-hydroxycyclohexyl)-N^2-methylfuran-2,4-dicarboxamide] | 1 to 10 | 
6 | CNC(=O)c1cc(C(=O)N[C@H]2C[C@@H]2C)c(C(C)c2ccccc2)o1 (single isomer, unassigned) [Example 96, N^2-methyl-N^4-((1S,2S)-2-Methylcyclopropyl)-5-((S*)-1-phenylethyl)furan-2,4-dicarboxamide] | 1 to 10 | 
7 | CNC(=O)c1cc(C(=O)N[C@H]2CC[C@H](O)CC2)c([C@@H](C)c2ccc(C)c(Cl)c2)o1 (single isomer, unassigned) [Example 98, 5-((S*)-1-(3-Chloro-4-methylphenyl)ethyl)-N^4-((1r,4S)-4-hydroxycyclohexyl)-N^2-methylfuran-2,4-dicarboxamide] | 1 to 10 | 
8 | CNC(=O)c1cc(C(=O)N[C@H]2CC[C@H](O)CC2)c([C@@H](CO)c2ccccc2)o1 (single isomer, unassigned) [Example 101, 5-((R*)-2-Hydroxy-1-phenylethyl)-N^4-((1r,4R)-4-hydroxycyclohexyl)-N^2-methylfuran-2,4-dicarboxamide] | 1 to 10 | 
9 | CNC(=O)c1cc(C(=O)N[C@H]2CC[C@H](O)CC2)c([C@@H](C)c2ccc(OC)cc2)o1 (single isomer, unassigned) [Example 102, N^4-((1r,4S)-4-Hydroxycyclohexyl)-5-((S*)-1-(4-methoxyphenyl)ethyl)-N^2-methylfuran-2,4-dicarboxamide] | 1 to 10 | 
10 | CNC(=O)c1cc(C(=O)N[C@H]2CC[C@H](O)CC2)c([C@@H](C)c2ccc(OC)c(OC)c2)o1 (single isomer, unassigned) [Example 106, 5-((S*)-1-(3,4-Dimethoxyphenyl)ethyl)-N^4-((1r,4S)-4-hydroxycyclohexyl)-N^2-methylfuran-2,4-dicarboxamide] | 1 to 10 | 
11 | CNC(=O)c1cc(C(=O)N[C@H]2CC[C@H](O)CC2)c([C@@H](OC)c2ccccc2)o1 (single isomer, unassigned) [Example 108, N^4-((1r,4S)-4-Hydroxycyclohexyl)-5-((S*)-methoxy(phenyl)methyl)-N^2-methylfuran-2,4-dicarboxamide] | 1 to 10 | 
12 | CNC(=O)c1cc(C(=O)NCC2CC2)c([C@@H](C)c2ccccc2)o1 [Example 104, (S)-N^4-(Cyclopropylmethyl)-N^2-methyl-5-(1-phenylethyl)furan-2,4-dicarboxamide] | 1 to 10 | 
13 | COc1ccc2c(c1)C(c1ccc(Cl)cc1)=N[C@@H](CC(=O)NCCCCCNC(=O)CCCCCC1(C)/C(=C/C=C/C=C/C3=[N+](CCCCS(=O)(=O)O)c4ccc(S(=O)(=O)O)cc4C3(C)C)N(CCCCS(=O)(=O)[O-])c3ccc(S(=O)(=O)O)cc31)c1nnc(C)n1-2 (stereo partly drawn) [Reference Compound X] |  | affinities of the single mutated bromdomain tandem proteins ([1]; compared with the corresponding non-mutated BET protein): equi-potent; reduction in Kd ([1]; double mutant tandem proteins in comparison to non mutated, wild type tandem BET proteins): > 1000 fold; reduction of the Kd of the interaction between the mutated bromodomain and Reference Compound X ([1]; single mutations of Tyrosine to Alanine): > 1000 fold

Source: patent US20210346336A1, “FURAN DERIVATIVES AS BROMODOMAIN INHIBITORS” (GlaxoSmithKline Intellectual Property (No.2) Limited, priority 2018, published 2021)
